According to patent EP4461293B1, “BIOTIN RECEPTOR-BINDING […] COMPOUNDS” (Biomedical Research Foundation Academy of Athens, priority 2023, dated 2024):
Values joined by “and” are separate entries in the source; they are usually repeats but may differ in a detail not shown here. Equal entries are not always repeated. Where two headings read alike, the source gives them in different places.

What was measured:
[1] = system: human mesenchymal stem cells (WJ-MSCs); assay: MTT viability assay, toxicity to normal cells; format: cell-based; conditions: 48 h growth in presence of drug, MTT assay (Figure 1)
From the text: Thus, human mesenchymal stem cells were extracted from Wharton's jelly (matrix) of the human fetal umbilical cord, also known as Wharton's Jelly Mesenchymal Stem cells (WJ-MSCs), from full-term pregnancies, as described in Christodoulou et al. [2022] and Goulielmaki et al. [2019].
WJ-MSCs up to seventh passage were used for this in vitro assay (b22 population doublings). The mean population doubling time (PDT) was 32+/- hours and cells maintained a consistent MSC immunophenotypic profile. […]
Cell viability of (WJ-MSCs) was determined colorimetrically in a 96-well plate assay, using the tetrazolium compound MTS (3-[4,5,dimethylthiazol-2-yl]-5-[3-carboxymethoxy-phenyl]-2-[4-sulfophenyl]-2H-tetrazolium, inner salt), which is bioreduced by cells into a colored formazan product that is soluble in tissue culture medium. […]
At a concentration of 3.5x10^2 cells/200 µL culture medium/well (37 °C, 5% CO2), WJ-MSCs were plated into 96-well microtiter plates. […] At the end, the absorbance was measured at 490nm (with 650nm as a reference wavelength) in a microplate reader (monochromator) [Monochro-mator Microplate Reader safire2 TECAN AUSTRIA GMBH/Measurement parameter Editor Magellan (version 6)].

[2] = system: MDA-MB-231; assay: Platinum cell uptake by mass cytometry (CyTOF), MDA-MB-231; format: cell-based; conditions: 50 µM, 60 min, in comparison to carboplatin (Figure 2)
Procedure: (§1) Cell cultures: Cancer cell lines, SkBr3, MDA-MB-231, MCF-7 and A549, which overexpress biotin receptors on their surface membranes, were each independently cultured in Dulbecco's Modified Eagle Medium (DMEM), supplemented with 10% fetal bovine serum (FBS), penicillin (100 µ/mL) and streptomycin (100 µg/mL) at 37 °C and 5% CO2.
(§2) For MCF-7, MDA-MB-231 and SkBr3 cell lines, an additional step was performed by preincubating for 15 min with 10-100 µM biotin. The quantification was performed by means of mass cytometry. Cell singlet discrimination - staining protocol B of the mass cytometer supplier (Fluidigm) was followed.
(§3) Medium was removed from cultures and cells were pelleted at 1500 rpm. Resuspension of cells was performed in an appropriate volume of RPMI 1640 or DMEM medium to obtain a density of about 1.5-3 x 10^6 cells per mL. Cells were fractionated and treated with different concentrations of each drug or maintained as is (control). […] Suspensions were incubated for 60 min at 37 °C and 5% CO2. Suspensions used to evaluate the effect of biotin in platinum cellular uptake, were preincubated with 100 µM biotin for 15 min before the treatment with each drug. […] A small volume of suspensions was maintained to quantify cells using Trypan blue staining. […]

[3] = system: A549; assay: Platinum cell uptake by mass cytometry (CyTOF), A549; format: cell-based; conditions: 50 µM, 60 min, in comparison to carboplatin (Figure 2)
Procedure: as §1, §2, §3

[4] = system: SkBr3; assay: Platinum cell uptake by mass cytometry (CyTOF), SkBr3; format: cell-based; conditions: for cellular uptake (CyTOF Pt195 signal): 50 µM, 60 min, in comparison to 50 µM carboplatin (Figure 3)
Procedure: as §1, §2
Medium was removed from cultures and cells were pelleted at 1500 rpm. Resuspension of cells was performed in an appropriate volume of RPMI 1640 or DMEM medium to obtain a density of about 1.5-3 x 10^6 cells per mL. Cells were fractionated and treated with different concentrations of each drug or maintained as is (control). […] Suspensions were incubated for 60 min at 37 °C and 5% CO2. Suspensions used to evaluate the effect of biotin in platinum cellular uptake, were preincubated with 100 µM biotin for 15 min before the treatment with each drug. After incubation, cells were stained using Maxpar cell staining buffer (MCSB) and then fixed using 1.6% paraformaldehyde in PBS for 10 min at room temperature. Incubation with intercalator 103Rh diluted in Maxpar fix-perm buffer was performed overnight at 4 °C. Cells were washed twice with MCSB, samples were pelleted and resuspended in cell acquisition solution (CAS). A small volume of suspensions was maintained to quantify cells using Trypan blue staining. As last step, each sample was diluted with CAS and calibration beads that include metal isotopes.

[5] = Pharmacokinetic study in mice, plasma by LC-MS/MS; format: in vivo, female C57BL/6 mice; conditions: ip
Procedure: Samples (plasma) were collected after 15, 30, 60 and 120 min of drug administration.
All samples were analyzed by an LC-MS/MS bioanalytical methodology.

[6] = Solubility; conditions: DMF
[7] = system: SkBr3 human breast cancer cells; assay: MTT viability assay, SkBr3; format: cell-based; conditions: 72h (Table 3b)
[8] = system: MCF-7; assay: MTT viability assay, MCF-7; format: cell-based, human
[9] = system: HCT-116; assay: MTT viability assay, HCT-116; format: cell-based; conditions: 72h, human colon cancer cells, biotin receptor-negative (Table 3a)
[10] = system: MDA-MB-231; assay: MTT viability assay, MDA-MB-231; format: cell-based, human; conditions: 72h (Table 3b)
[11] = 72h, with addition of 10 µM D-(+)-Biotin (Table 2b), read-out: MCF-7 and biotin IC50
[12] = 72h, without biotin (Table 2b), read-out: MCF-7 IC50

| SMILES | concentration at which less than 50% viability is reached [1] [µM] | cellular uptake (CyTOF Pt195 signal) [4] | IC50 [8, 11] [µM] | IC50 [8, 12] [µM] | IC50 [9] | further results |
| --- | --- | --- | --- | --- | --- | --- |
| C[C@@H]1[NH2+][Pt-2]([Cl])([Cl])[NH2+][C@@H]1CCCCCC(=O)O [PMX114, (7R,8S)-7,8-diaminononanoic acid dichloroplatinum(II)] | > 300 | significantly greater |  |  |  | platinum uptake (CyTOF Pt195 signal) [2]: significantly greater; platinum uptake (CyTOF Pt195 signal) [3]: significantly greater; effect of biotin preincubation on platinum entry ([4]; preincubation with 100 µM of biotin for 15 min, then 50 µM drug): inhibition of platinum entry; AUC ([5]; female, C57BL/6, mouse, 75 mg/kg, read-out: Areas under the curve (AUCs) (converted)): 42.1 µM·h; Solubility [6]: good |
| CC(N)C(N)CCCCCC(=O)O.O=C1[O][Pt][O]C1=O [PMX118, (7R,8S)-7,8-diaminononanoic acid oxalatoplatinum(ll)] |  | significantly greater | 290 | 133 | 225 µM and > 250 µM | IC50 [7]: 225 µM and > 250 µM; IC50 ([8]; 72h (Table 3b), read-out: MCF-7 IC50): 100 µM; IC50 [10]: 116 µM and 144 µM |
| N.N.[Cl][Pt][Cl] [Cisplatin, reference compound] |  |  | 12 | 9 | 7 µM and 8 µM |  |
| [NH3+][Pt-2]1([NH3+])[O]C(=O)C2(CCC2)C(=O)[O]1 [Carboplatin] | 100 |  |  |  |  | Cmax ([5]; mouse, 60 mg/kg): 131 ± 50 µM; AUC at 2 h ([5]; mouse, 60 mg/kg, read-out: Areas under the curve (AUCs) (converted)): 69.4 µM·h |
